Like-named read-outs stand apart in the source and are kept apart here.

Series [1] is described as follows: Pharmacokinetic evaluation in SD rats. Format: in vivo. How it is done: SD rats were fasted for 15 h overnight and grouped randomly according to body weight. The test compound was dissolved in a solution of 5% DMSO+5% Solutol+90% Saline. For intravenous administration of the test group, the animals were administered with a dose of 1 mg/kg; for oral administration of the test group, the animals were administered with a dose of 5 mg/kg. Then venous blood (approximately 0.2 mL) was collected at the time point of 0, 0.083 (only intravenous injection group), 0.25, 0.5, 1.0, 2.0, 5.0, 7.0 and 24 h after drug administration. The venous blood was placed in EDTAK2 anticoagulant tube and centrifuged at 11000 rpm for 2 min. Plasma was collected and stored at −20° C. or at −70° C. until LC/MS/MS analysis. The drug concentration in plasma was measured at each time point, and pharmacokinetic parameters were calculated according to the curve of drug concentration-time.

Another series addresses hURAT1 (Homo sapiens (Human), UniProt Q96S37). Nature of the series: URAT1 (urate anion transporter) inhibition activity assay: [8-14C] uric acid absorption inhibition in HEK293T cell line stably expressing hURAT1. Format: cell-based. Particulars: [8-14C] uric acid uptake, HEK293T cells stably expressing hURAT1. From the text: Inhibition ratio (%)=[1−(^14C uptaken by drug well−^14C uptaken by negative well)/(^14C uptaken by buffer well−^14C uptaken by negative well)]×100;
Wherein, the negative well was unvaccinated cell line […].

A further series addresses xanthine oxidase (Homo sapiens (Human), UniProt P47989). Nature of the series: XO (Xanthine Oxidase) inhibition activity assay. Format: biochemical. Particulars: substrate xanthine, absorbance at 290 nm. Here is the method:
Then the diluted solution was added to a 384 well plate at 30 μL/well, and then to each well was added 30 μL of 21 mU/mL xanthine oxidase. […] After being incubated at room temperature for 5 min, absorbance at 290 nm was read by using PHERAstar FS microplate reader.

Where [2] appears, read: rat, plasma, SD rats, iv, 1 mg/kg.
Setting [3] is: rat, plasma, SD rats, iv, 1 mg/kg, read-out: Cmax.
Where [4] appears, read: rat, plasma, SD rats, po, 5 mg/kg.

xanthine oxidase, sequence (P47989 whole entry, species assumed): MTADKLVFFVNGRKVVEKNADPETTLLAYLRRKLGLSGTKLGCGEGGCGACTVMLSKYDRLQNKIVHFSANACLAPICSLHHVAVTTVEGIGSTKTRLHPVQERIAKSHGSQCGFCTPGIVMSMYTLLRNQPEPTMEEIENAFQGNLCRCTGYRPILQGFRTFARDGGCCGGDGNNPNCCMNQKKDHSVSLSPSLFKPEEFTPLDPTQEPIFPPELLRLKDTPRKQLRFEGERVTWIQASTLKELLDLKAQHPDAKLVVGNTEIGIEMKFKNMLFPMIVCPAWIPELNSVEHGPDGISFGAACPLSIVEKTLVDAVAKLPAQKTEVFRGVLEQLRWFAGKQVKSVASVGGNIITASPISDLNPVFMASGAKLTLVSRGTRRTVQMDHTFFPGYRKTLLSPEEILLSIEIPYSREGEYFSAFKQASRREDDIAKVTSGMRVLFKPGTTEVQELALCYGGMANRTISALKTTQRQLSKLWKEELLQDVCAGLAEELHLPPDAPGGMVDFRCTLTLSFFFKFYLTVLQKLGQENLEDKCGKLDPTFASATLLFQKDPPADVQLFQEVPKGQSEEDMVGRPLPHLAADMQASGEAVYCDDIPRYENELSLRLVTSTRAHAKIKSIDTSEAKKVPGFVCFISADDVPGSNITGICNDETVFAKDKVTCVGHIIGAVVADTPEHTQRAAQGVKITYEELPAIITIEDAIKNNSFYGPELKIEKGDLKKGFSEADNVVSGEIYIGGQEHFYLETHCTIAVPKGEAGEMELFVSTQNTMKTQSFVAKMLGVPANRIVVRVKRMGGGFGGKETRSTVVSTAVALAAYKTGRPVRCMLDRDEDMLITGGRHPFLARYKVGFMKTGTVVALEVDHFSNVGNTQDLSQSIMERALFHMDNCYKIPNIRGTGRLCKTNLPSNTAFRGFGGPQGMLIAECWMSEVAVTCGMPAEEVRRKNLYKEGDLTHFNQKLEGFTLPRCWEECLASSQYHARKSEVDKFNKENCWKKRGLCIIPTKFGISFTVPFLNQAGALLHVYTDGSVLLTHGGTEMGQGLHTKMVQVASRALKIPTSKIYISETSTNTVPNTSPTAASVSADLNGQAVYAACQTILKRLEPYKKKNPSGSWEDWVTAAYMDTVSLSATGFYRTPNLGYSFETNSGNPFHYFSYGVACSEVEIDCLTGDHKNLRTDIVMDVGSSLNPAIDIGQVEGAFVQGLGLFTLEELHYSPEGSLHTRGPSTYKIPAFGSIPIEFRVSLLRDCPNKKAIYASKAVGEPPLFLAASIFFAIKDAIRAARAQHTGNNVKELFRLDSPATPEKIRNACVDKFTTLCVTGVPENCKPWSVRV
hURAT1, sequence (Q96S37 whole entry): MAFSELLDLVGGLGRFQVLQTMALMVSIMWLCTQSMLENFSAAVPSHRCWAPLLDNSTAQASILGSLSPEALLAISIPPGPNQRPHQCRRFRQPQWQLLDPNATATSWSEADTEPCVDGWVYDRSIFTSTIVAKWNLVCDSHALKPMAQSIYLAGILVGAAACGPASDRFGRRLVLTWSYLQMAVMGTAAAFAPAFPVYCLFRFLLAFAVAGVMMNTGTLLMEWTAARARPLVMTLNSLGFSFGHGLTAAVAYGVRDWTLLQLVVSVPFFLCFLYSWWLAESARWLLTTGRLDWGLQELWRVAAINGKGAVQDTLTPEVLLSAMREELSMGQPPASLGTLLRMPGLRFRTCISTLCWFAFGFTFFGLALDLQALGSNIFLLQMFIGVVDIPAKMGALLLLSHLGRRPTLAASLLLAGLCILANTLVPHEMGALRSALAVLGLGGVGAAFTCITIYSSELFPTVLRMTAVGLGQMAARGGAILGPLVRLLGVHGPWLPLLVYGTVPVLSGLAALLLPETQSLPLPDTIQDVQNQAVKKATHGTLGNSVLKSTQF

As for `N#Cc1cc(-c2ccc(C(=O)O)c(O)c2)c2occc2c1` [Example 1, 4-(5-cyanobenzofuran-7-yl)-2-hydroxybenzoic Acid], in series [1] (SD, rat, in vivo), the F is 131%. For the same compound, in series [1] (SD, rat, in vivo, iv, 1 mg/kg), the AUClast came out at 6860 ng·h/mL, the Vd worked out at 0.399 L/kg and the clearance was determined as 2.4 mL/min/kg. In series [1] (SD, rat, in vivo, po, 5 mg/kg), this compound gave an AUClast of 44400 ng·h/mL and a T1/2 of 3.45 h. In series [1] (setting [2]), the AUC(0-inf) (in general, the area under the concentration-time curve extrapolated to infinity) was determined as 7000 ng·h/mL; the MRT inf (commonly a mean duration of stay, worked out from the concentration-time curve) amounted to 2.84 h; the Tmax (usually the time from dosing to the highest level) was determined as 0.083 h; the half-life (commonly how long it takes for the measured level to halve) was 1.53 h. Besides, the maximum concentration (Cmax) (commonly the peak of the concentration-time curve) in series [1] (setting [3]) turned out to be 6030 ng/mL. Further, in series [1] (setting [4]), the AUC(0-inf) was determined as 45800 ng·h/mL, the MRT inf stood at 5.98 h and the Tmax amounted to 0.417 h. The IC50 (as a rule, the concentration at which inhibition is half-maximal) against hURAT1 stood at 140 nM. At xanthine oxidase, this compound returned an IC50 of 19.6 nM.

In turn, `N#Cc1cc(-c2ccc(C(=O)O)c(O)c2)c2ccccc2c1` [Example 2, 4-(3-cyanonaphthalene-1-yl)-2-hydroxybenzoic Acid] yielded a F in series [1] (SD rats, po 5 mg/kg vs iv 1 mg/kg) of 74.9%. Besides, in series [1] (setting [2]), the AUC(0-inf) was found to be 2210 ng·h/mL; the AUC(0-t) (usually exposure summed from dosing to a finite time, without extrapolation to infinity) came to 2170 ng·h/mL; the MRT inf is 1.86 h; the Tmax worked out at 0.083 h. The compound further showed a half-life in series [1] (setting [2]) of 3.1 h. Further, the clearance in series [1] (rat, plasma, SD rats, iv, 1 mg/kg, read-out: Cl) came out at 7.59 mL/min/kg. In addition, the maximum concentration (Cmax) in series [1] (setting [3]) worked out at 4380 ng/mL. For the same compound, the Vd in series [1] (rat, plasma, SD rats, iv, 1 mg/kg, read-out: Vss) turned out to be 0.828 L/kg. For the same compound, in series [1] (setting [4]), the AUC(0-inf) is 8140 ng·h/mL, the AUC(0-t) was determined as 8130 ng·h/mL, the MRT inf is 1.5 h and the Tmax turned out to be 0.417 h. This compound also had a half-life in series [1] (setting [4]) of 3.86 h. In addition, the Cmax in series [1] (rat, plasma, SD rats, po, 5 mg/kg, read-out: Cmax) amounted to 6290 ng/mL.

Regarding `N#Cc1cc2c(c(-c3ccc(C(=O)O)c(O)c3)c1)OCC2` [Example 4, 4-(5-cyano-2,3-dihydrobenzofuran-7-yl)-2-hydroxybenzoic Acid], the IC50 came to 499 nM on hURAT1 and 60.4 nM against xanthine oxidase.

Turning to `N#Cc1cc(-c2ccc(C(=O)O)c(O)c2)c2[nH]ccc2c1` [Example 7, 4-(5-cyano-1H-indol-7-yl)-2-hydroxybenzoic Acid], the concentration for half-maximal inhibition (IC50) on hURAT1 is 2880 nM; against xanthine oxidase it was 10.9 nM.

As for `N#Cc1cc(-c2ccc(C(=O)O)c(O)c2)c2ccoc2c1` [Example 21, 4-(6-cyanobenzofuran-4-yl)-2-hydroxybenzoic Acid], the results for the IC50 on hURAT1 and on xanthine oxidase were 172 nM and 39.5 nM, respectively.

In turn, `N#Cc1cc(-c2ccc(C(=O)O)c(O)c2)c2oc(F)cc2c1` [Example 29, 4-(5-cyano-2-fluorobenzofuran-7-yl)-2-hydroxybenzoic Acid] yielded a F in series [1] (SD, rat, in vivo) of 145%. Besides, in series [1] (SD, rat, in vivo, iv, 1 mg/kg), the AUClast came out at 10900 ng·h/mL, the Cl was 1.51 mL/min/kg and the Vd is 0.311 L/kg. In series [1] (SD, rat, in vivo, po, 5 mg/kg), this compound came in with an AUClast of 81700 ng·h/mL and a T1/2 of 2.84 h. Moreover, in series [1] (setting [2]), the AUC(0-inf) was 11300 ng·h/mL, the MRT inf turned out to be 3.49 h, the Tmax came out at 0.083 h and the half-life was 2.76 h. Besides, in series [1] (setting [3]), the Cmax worked out at 4540 ng/mL. In series [1] (setting [4]), the area under the curve AUC(0-inf) is 82100 ng·h/mL, the MRT inf amounted to 3.8 h and the Tmax worked out at 1.33 h. This compound also gave an IC50 at hURAT1 of 38 nM. On xanthine oxidase, this compound had an IC50 of 34.6 nM.

With `N#Cc1cc(-c2ccc(C(=O)O)c(O)c2)c2ccsc2c1` [Example 31, 4-(6-cyanobenzo[b]thiophen-4-yl)-2-hydroxybenzoic Acid], the half-maximal inhibitory concentration (IC50) against hURAT1 is 45 nM; against xanthine oxidase, 57.8 nM.

`N#Cc1cc(-c2ccc(C(=O)O)c(O)c2)c2oc(Cl)cc2c1` [Example 40, 4-(2-chloro-5-cyanobenzofuran-7-yl)-2-hydroxybenzoic Acid] showed a F in series [1] (SD, rat, in vivo) of 94%. In series [1] (SD, rat, in vivo, iv, 1 mg/kg), this compound registered an AUClast of 5480 ng·h/mL, a Cl of 2.77 mL/min/kg and a Vd of 0.401 L/kg. Besides, in series [1] (SD, rat, in vivo, po, 5 mg/kg), the AUClast was 28100 ng·h/mL, the highest level (Cmax) was 3700 ng/mL and the T1/2 came to 3.05 h. For the same compound, in series [1] (setting [2]), the AUC(0-inf) turned out to be 6020 ng·h/mL, the MRT inf was 2.42 h, the Tmax was found to be 0.083 h and the half-life is 2.33 h. Besides, in series [1] (setting [3]), the Cmax amounted to 4090 ng/mL. Moreover, in series [1] (setting [4]), the AUC(0-inf) came to 28200 ng·h/mL, the MRT inf is 4.95 h and the Tmax was found to be 0.5 h. On hURAT1, this compound returned an IC50 of 30 nM. Besides, on xanthine oxidase, 53.6 nM corresponded to half-maximal inhibition (IC50).

Source of the values: patent US10266496B2, “Carboxy substituted (hetero) aromatic ring derivatives and preparation method and uses thereof” (SUNSHINE LAKE PHARMA CO., LTD., priority 2015, dated 2019).
